The source of these data is patent US20190353644A1, “PROFILE ANALYSIS OF CELL POLARITY” (Wake Forest University Health Sciences, priority 2018, published 2019).

The test system of one experiment is apical polarity. The settings on record: Yue et al., Biophys. J. 102:1215 (2012); cited from earlier work.
Experiment [1] relates to mammary epithelial cell line stably expressing GFP-ZO-1. Description: Live cell imaging of GFP-ZO-1 mammary epithelial cell line. Type of experiment: cell-based. The settings on record: leptin treatment. The text has this:
Immunostaining techniques have certain limitations, including (1) time consumption, (2) costs of reagents, and (3) poor time resolution. An alternative approach has been developed based on live cell imaging. Immunostaining for polarity markers is replaced by expression of polarity marker proteins tagged with a fluorescent protein (e.g., GFP-ZO-1). A mammary epithelial cell line stably expressing GFP-ZO-1 has been generated and characterized (FIGS. 9A-9B). The cell line retains apical-basal polarity (which is disturbed by leptin treatment) and expresses the recombinant marker at physiological levels. As a more flexible alternative to genetically encoded fluorescent markers of polarity, a nontoxic actin dye compatible with live cell imaging (SiR-actin) has been used. Cells are stained for 1 h with a mix of SiR-actin and Hoechst (DNA dye) before imaging. Similar results were obtained with this approach compared to the fixed, immunostaining approach described in EXAMPLE 1.

The test system of experiment [2] is HMT-3522 S1 mammary epithelial cells acini. Description: Radial profile (RP) analysis of ZO-1 distribution in acini. Type of experiment: cell-based. As to the method:
The concept of radial profile (RP) analysis of epithelial polarity was tested. A macro script and two plugins for the open image analysis software ImageJ (imagej.nih.gov/ij/) were developed. Subsequently, computer code was translated for the MATLAB® computing platform and improvements were made. This new code is referred to as the RadialProfiler algorithm. MATLAB® is a more robust and versatile computing platform that allows important improvement to the approach. In particular, MATLAB® can easily process entire image folders in batch using looping functions. Batch processing has been included in the new MATLAB® version of the RP analysis that enables automated analyses of series of images. The code was designed to analyze two-channel fluorescence microscopy images. The first channel corresponds to DAPI staining of cell nuclei, whereas the second channel corresponds to an apical polarity marker (e.g., ZO-1, Par3, or actin) detected by immunofluorescence. […] Initially, two plugins were developed to compare two approaches to quantify apical polarity: (1) an analysis of the RP distribution of the signals and (2) the computation of the moment of inertia (MOI). […]
Fluorescent signals of polarity markers in 3D cell cultures were scored visually for apical localization using an Olympus IX83 epifluorescence microscope equipped with a 60× oil immersion objective (NA=1.35). […]

The next experiment concerns live S1 cell acini. Description: Live cell imaging of acini stained with SiR-actin. Type of experiment: cell-based. To be noted: leptin treatment as in EXAMPLE 3. The text has this: RadialProfiler can be applied to quantify epithelial markers detected by immunofluorescence (as described in Tenvooren et al., Oncogene (2019)), or to quantify cortical actin labeled in live acini with the SiR-actin dye (Cytoskeleton Inc.). DAPI and Hoechst are used to counterstain cell nuclei in fixed and live experiments, respectively.
For imaging, an automated IX83 microscope (Olympus) equipped with a motorized ultrasonic stage and a TruFocus Z drift compensation module was used. For RadialProfiler analyses, images are taken with either 10× (NA=0.3) or 20× (NA=0.45) air lenses, using a sCMOS camera (ORCA-Flash4.0, Hamamatsu). The RadialProfiler software was also tested with images acquired using different imaging systems, including a high content imager (Perkin Elmer Operetta CLS). RadialProfiler and the underlying approach to analyze polarity are agnostic to the imaging system. Fields of view are chosen either in an automated fashion or based on nuclear signals (DAPI or Hoechst) to avoid bias. For live cell analyses, acini are maintained at 37° C. and 5% CO2 using a stage-top incubator (Tokai Hit). The minimal resolution needed depends on the number of radial terraces used by RadialProfiler. […] It was determined that using 5-10 bins that are 2 pixels wide yields accurate measurements. […]

Experiment [3] relates to HMT-3522 S1 mammary epithelial cells acini. Description: Visual scoring of apical polarity markers in 3D acini cultures (conventional methods). Type of experiment: cell-based. To be noted: elevated levels of leptin; measured with conventional methods (Tenvooren et al.). From the text:
Non-neoplastic HMT-3522 S1 mammary epithelial cells were obtained from Dr. Mina Bissell (Lawrence Berkeley Laboratory) and propagated between passages 54 and 60 in H14 medium. Acinar differentiation was achieved by culturing the cells in 3D on top of a layer of Matrigel matrix (Corning) in chambered slides (Millipore), as described (10).
Fluorescent signals of polarity markers in 3D cell cultures were scored visually for apical localization using an Olympus IX83 epifluorescence microscope equipped with a 60× oil immersion objective (NA=1.35). At least 100 acini were scored per condition in each experiment. Alternatively, fluorescence images were taken with the CMOS camera (Hamamatsu, ORCA-Flash4.0) on this microscope, using a 10× (NA=0.3) objective. The ImageJ script was used to extract acini from DAPI images and to calculate the radial distribution of the signals. 150-450 acini were analyzed per condition.

With omega-6 fatty acids, the apical polarity entry with apical polarity is “disrupted”.
For leptin, in experiment [1], the “apical-basal polarity of GFP-ZO-1 cell line” value was “disturbed”. For the same substance, the “averaged RP curves and integrated values (ZO-1 radial distribution)” value in experiment [2] (acini treated 72 h with vehicle or leptin (100 ng/ml), FIG. 8C, P<0.0001) is on record as “distinct for the two treatments”. In the experiment with live S1 cell acini, the “apical SiR-actin signal” value is on record as “loss of apical SiR-actin signal”. Moreover, in experiment [3], the apical polarity result is “loss of apical polarity”.
On to “lipopolysaccharide [LPS, reference compound]”, for which the polarity score result in experiment [2] (breast acini exposed to LPS, FIG. 8F) is recorded as “decrease in the polarity score”.
